Each structure is given as a SMILES string.

The target of this experiment is T1, MAGL protein (Homo sapiens, UniProt Q99685).
T1 sequence (Q99685 1-303): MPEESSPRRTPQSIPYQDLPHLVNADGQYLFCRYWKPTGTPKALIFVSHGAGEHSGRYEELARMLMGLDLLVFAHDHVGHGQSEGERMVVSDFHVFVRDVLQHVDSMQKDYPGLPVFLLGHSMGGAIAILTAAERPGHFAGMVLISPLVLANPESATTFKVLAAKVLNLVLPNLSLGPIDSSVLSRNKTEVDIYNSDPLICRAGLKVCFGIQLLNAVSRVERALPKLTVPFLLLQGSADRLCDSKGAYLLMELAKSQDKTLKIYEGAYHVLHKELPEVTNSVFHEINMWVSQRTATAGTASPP
Kind of experiment: 2-AG assay: MAGL inhibitory activity by hydrolysis of 2-arachidonoylglycerol to arachidonic acid, followed by mass spectrometry. Type of experiment: biochemical. Particulars: 8 μM 2-arachidonoylglycerol, 15 min preincubation, 30 min reaction at RT, RapidFire MS readout. A digest of the protocol: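 MAGL was preincubated 15 min at RT with compound (12.5 to […], 3-fold steps) in 50 mM TRIS, 1 mM EDTA, 0.01% Tween-20, 2.5% DMSO. The reaction ran 30 min at RT with 8 μM 2-AG. Arachidonic acid was quantified by RapidFire SPE-MS/MS against a d8-arachidonic acid internal standard.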
Usually IC50 stands for the point on the concentration scale where inhibition reaches its midpoint. For the molecule `O=C(N1CC(CNS(=O)(=O)c2ccc(C(F)(F)F)cc2)C1)N1CC2(CC(c3nnc(C4CC4)[nH]3)C2)C1` [compound 209], the IC50 came to 316 nM.

The molecule `O=C(N1CC(CNS(=O)(=O)c2ccc(C(F)(F)F)cc2)C1)N1CC2(CC(c3nnc(C4(O)CC4)[nH]3)C2)C1` [compound 210] gave an IC50 of 482 nM.

Take `O=C(N1CC(CNS(=O)(=O)c2cccc(C(F)(F)F)c2)C1)N1CC2(CC(c3nnc(C4(O)CC4)[nH]3)C2)C1` [compound 211]: the IC50 was 136 nM.

On to `CC(C)(C)CS(=O)(=O)N1CC2(CN(C(=O)N3CC4(CC(c5nnc(C6CC6)[nH]5)C4)C3)C2)C1` [compound 212], for which it took 58.1 nM to reach half-maximal inhibition (IC50).

`CC1(NS(=O)(=O)N2CC3(CN(C(=O)N4CC5(CC(c6nnc(C7CC7)[nH]6)C5)C4)C3)C2)CC1` [compound 213]: half-maximal inhibition (IC50) required 45 nM.

On to `O=C(N1CC2(CC(c3nnc(C4CC4)[nH]3)C2)C1)N1CC2(C1)CN(S(=O)(=O)NCc1ccc(F)cc1)C2` [compound 214], for which half-maximal inhibition (IC50) was put at 19.9 nM.

With `O=C(N1CC2(CC(c3nnc(C4CC4)[nH]3)C2)C1)N1CC2(C1)CN(S(=O)(=O)NC1(C(F)(F)F)CC1)C2` [compound 215], half-maximal inhibition (IC50) was put at 17.4 nM.

Molecule `O=C(N1CC2(CC(c3nnc(C4CC4)[nH]3)C2)C1)N1CC2(C1)CN(S(=O)(=O)NCC1(C(F)(F)F)CC1)C2` [compound 216] returned an IC50 of 11 nM.

`O=C(N1CC2(CC(c3nnc(C4CC4)[nH]3)C2)C1)N1CC2(C1)CN(c1cnc(C(F)(F)F)cn1)C2` [compound 218] registered an IC50 of 172 nM.

For `O=C(N1CC(CN2CCC(F)(F)CC2)C1)N1CC2(CC(c3nnc(C4CC4)[nH]3)C2)C1` [compound 219], the IC50 turned out to be 923 nM.

`O=C(N1CC2(CC(c3nnc(C4CC4)[nH]3)C2)C1)N1CC2(CC(N3CCS(=O)(=O)CC3)C2)C1` [compound 220]: the IC50 was determined as 207 nM.

Take `O=C(N1CC2(CC(NCC3(C(F)(F)F)CC3)C2)C1)N1CC2(CC(c3nnc(C4CC4)[nH]3)C2)C1` [compound 221]: the IC50 is 8.51 nM.

With `O=C(N1CC2(CC(NC(=O)C3(C(F)(F)F)CC3)C2)C1)N1CC2(CC(c3nnc(C4CC4)[nH]3)C2)C1` [compound 222], the concentration for half-maximal inhibition (IC50) came out at 40.7 nM.

`O=C(N1CC2(CC(NS(=O)(=O)c3ccc(C(F)(F)F)cc3)C2)C1)N1CC2(CC(c3nnc(C4CC4)[nH]3)C2)C1` [compound 223] had an IC50 of 0.33 nM.

As for `O=C(N1CC2(CC(NS(=O)(=O)c3ccccc3C(F)(F)F)C2)C1)N1CC2(CC(c3nnc(C4CC4)[nH]3)C2)C1` [compound 224], the 50% inhibitory concentration (IC50) came to 0.7 nM.

Consider `CC(C)(C)CS(=O)(=O)NC1CC2(C1)CN(C(=O)N1CC3(CC(c4nnc(C5CC5)[nH]4)C3)C1)C2` [compound 225], for which half-maximal inhibition (IC50) was put at 3.67 nM.

In turn, `O=C(N1CC(c2ccc(C3(C(F)(F)F)CC3)cc2)C1)N1CC2(CC(c3nnc(C4CC4)[nH]3)C2)C1` [compound 226] showed an IC50 of 0.11 nM.

As for `O=C(N1CC(c2ccc(C3(C(F)(F)F)CC3)cc2)C1)N1CC2(CC(c3nnc(C4(O)CC4)[nH]3)C2)C1` [compound 227], inhibition was half-maximal at 0.91 nM (IC50). Compared with the last molecule, the IC50 is about 8.3-fold higher.

As to `O=C(N1CC(c2ccc(C3(C(F)(F)F)CC3)cc2)C1)N1CC2(CC(c3nnc(C(O)C(F)(F)F)[nH]3)C2)C1` (stereo not shown) [compound 228], the IC50 is 14.8 nM. Compared with the last molecule, the IC50 is about 16-fold higher.

`O=C(N1CC(c2ccc(C3(C(F)(F)F)CC3)nc2)C1)N1CC2(CC(c3nnc(C4CC4)[nH]3)C2)C1` [compound 231] displayed an IC50 of 3.39 nM. Against the preceding molecule, the IC50 is about 4.4-fold lower.

For `O=C(N1CC(c2ccc(C3(C(F)(F)F)CC3)nc2)C1)N1CC2(CC(c3nnc(C4(O)CC4)[nH]3)C2)C1` [compound 232], half-maximal inhibition (IC50) required 43.6 nM. This IC50 lies about 13-fold higher than the previous one.

For the molecule `O=C(N1CC(c2cnc(C3(C(F)(F)F)CC3)cn2)C1)N1CC2(CC(c3nnc(C4CC4)[nH]3)C2)C1` [compound 233], 13.8 nM corresponded to half-maximal inhibition (IC50).

As to `O=C(N1CC(c2ccc(C3(C(F)(F)F)CC3)nn2)C1)N1CC2(CC(c3nnc(C4CC4)[nH]3)C2)C1` [compound 234], the IC50 was determined as 139 nM.

On to `O=C(N1CC(c2cnc(C3(C(F)(F)F)CC3)nc2)C1)N1CC2(CC(c3nnc(C4CC4)[nH]3)C2)C1` [compound 235], for which the IC50 is 21.9 nM. Compared with the last molecule, the IC50 is about 6.3-fold lower.

In turn, `O=C(N1CC(c2ccc(C3(C(F)(F)F)CC3)cn2)C1)N1CC2(CC(c3nnc(C4CC4)[nH]3)C2)C1` [compound 236] returned a half-maximal inhibitory concentration (IC50) of 4.52 nM. This IC50 lies about 4.8-fold lower than the previous one.

For the molecule `O=C(N1CC2(CCN(S(=O)(=O)C34CC(C(F)(F)F)(C3)C4)CC2)C1)N1CC2(CC(c3nnc(C4CC4)[nH]3)C2)C1` [compound 237], half-maximal inhibition (IC50) required 17.1 nM.

For the molecule `O=C(N1CC2(CCN(S(=O)(=O)C34CC(C(F)(F)F)(C3)C4)CC2)C1)N1CC2(CC(c3nnc(C4(O)CC4)[nH]3)C2)C1` [compound 238], the IC50 is 354 nM.

With `O=C(N1CC2(CCN(S(=O)(=O)C34CC(C(F)(F)F)(C3)C4)CC2)C1)N1CC2(CC(c3nnc(C4CCC4)[nH]3)C2)C1` [compound 239], half-maximal inhibition (IC50) was put at 842 nM.

Molecule `O=C(N1CC2(CCN(S(=O)(=O)c3ccc(C(F)(F)F)cc3F)CC2)C1)N1CC2(CC(c3nnc(C4CC4)[nH]3)C2)C1` [compound 240] displayed an IC50 of 1.27 nM.

Molecule `O=C(N1CC(c2ccc(OC(F)(F)F)c(F)c2)C1)N1CC2(CC(c3nnc(C4CC4)[nH]3)C2)C1` [compound 241] returned a 50% inhibitory concentration (IC50) of 0.24 nM. This IC50 lies about 5.3-fold lower than the previous one.

In turn, `O=C(N1CC(c2ccc(OC(F)(F)F)c(F)c2)C1)N1CC2(CC(c3nnc(C4(O)CC4)[nH]3)C2)C1` [compound 242] displayed an IC50 of 2.23 nM.

For the molecule `O=C(N1CC(c2ccc(S(=O)(=O)C(F)(F)F)cc2)C1)N1CC2(CC(c3nnc(C4CC4)[nH]3)C2)C1` [compound 243], inhibition was half-maximal at 0.57 nM (IC50).

`O=C(N1CC(c2ccc(CC(F)(F)F)cc2)C1)N1CC2(CC(c3nnc(C4(O)CC4)[nH]3)C2)C1` [compound 244] came in with an IC50 of 7.96 nM.

In turn, `O=C(N1CC(c2nc(CC3(C(F)(F)F)CC3)no2)C1)N1CC2(CC(c3nnc(C4CC4)[nH]3)C2)C1` [compound 245] yielded an IC50 of 50.2 nM.

Turning to `O=C(N1CC(c2noc(C3(C(F)(F)F)CC3)n2)C1)N1CC2(CC(c3nnc(C4CC4)[nH]3)C2)C1` [compound 246], the 50% inhibitory concentration (IC50) is 66.8 nM.

`CC(C)S(=O)(=O)c1ccc(C2CN(C(=O)N3CC4(CC(c5nnc(C6CC6)[nH]5)C4)C3)C2)c(Cl)c1` [compound 247] yielded an IC50 of 3.7 nM.

For `O=C(N1CCC(NS(=O)(=O)c2ccc(C(F)(F)F)cc2)CC1)N1CC2(CC(c3nnc(C4CC4)[nH]3)C2)C1` [compound 248], the IC50 was 676 nM.

`O=C(N1CCC(NS(=O)(=O)c2ccc(F)cc2)CC1)N1CC2(CC(c3nnc(C4CC4)[nH]3)C2)C1` [compound 249]: the IC50 is 1300 nM.

As for `O=C(N1CCC(CNS(=O)(=O)c2ccc(C(F)(F)F)cc2)CC1)N1CC2(CC(c3nnc(C4CC4)[nH]3)C2)C1` [compound 250], the IC50 stood at 41.5 nM.

On to `O=C(N1CCC(CNS(=O)(=O)c2ccc(OC(F)(F)F)cc2)CC1)N1CC2(CC(c3nnc(C4CC4)[nH]3)C2)C1` [compound 251], for which the IC50 came to 23.9 nM.

As to `O=C(N1CCC(CNS(=O)(=O)c2ccc(Cl)cc2)CC1)N1CC2(CC(c3nnc(C4CC4)[nH]3)C2)C1` [compound 252], inhibition was half-maximal at 68.3 nM (IC50).

Turning to `O=C(N1CC(c2ccc(NCC3(C(F)(F)F)CC3)nc2)C1)N1CC2(CC(c3nnc(C4CC4)[nH]3)C2)C1` [compound 253], the IC50 was determined as 0.14 nM.

Consider `O=C(N1CC(c2ccc(NCC3(C(F)(F)F)CC3)nc2)C1)N1CC2(CC(c3nnc(C4(O)CC4)[nH]3)C2)C1` [compound 254], for which the IC50 was determined as 1.25 nM.

`O=C(N1CC(c2cnc(NCC3(C(F)(F)F)CC3)cn2)C1)N1CC2(CC(c3nnc(C4CC4)[nH]3)C2)C1` [compound 255] registered an IC50 of 0.68 nM. This IC50 is about 1.8-fold lower than that of the molecule before.

Turning to `O=C(N1CC(c2ccc(NCC3(C(F)(F)F)CC3)cn2)C1)N1CC2(CC(c3nnc(C4CC4)[nH]3)C2)C1` [compound 256], half-maximal inhibition (IC50) was put at 0.78 nM.

Consider `O=C(N1CC(c2ccc(NCC3(C(F)(F)F)CC3)cc2)C1)N1CC2(CC(c3nnc(C4CC4)[nH]3)C2)C1` [compound 257], for which it took 0.08 nM to reach half-maximal inhibition (IC50).

`O=C(N1CC(c2ccc(N3CC(C(F)(F)F)C3)nc2)C1)N1CC2(CC(c3nnc(C4CC4)[nH]3)C2)C1` [compound 258] yielded an IC50 of 0.64 nM.

`O=C(N1CC(c2ccc(N3CC(C(F)(F)F)C3)nc2)C1)N1CC2(CC(c3nnc(C4(O)CC4)[nH]3)C2)C1` [compound 259] had an IC50 of 3.63 nM.

Molecule `O=C(N1CC(c2ccc(N3CC(C(F)(F)F)C3)nc2)C1)N1CC2(CC(c3nnc(C4CCC4)[nH]3)C2)C1` [compound 260] showed an IC50 of 19.7 nM.

`O=C(N1CC(c2ccc(N3CC(C(F)(F)F)C3)cc2)C1)N1CC2(CC(c3nnc(C4CC4)[nH]3)C2)C1` [compound 261] showed an IC50 of 0.36 nM.

With `O=C(N1CC(c2ccc(N3CC(C(F)(F)F)C3)cc2)C1)N1CC2(CC(c3nnc(C4(O)CC4)[nH]3)C2)C1` [compound 262], it took 1.96 nM to reach half-maximal inhibition (IC50).

Turning to `O=C(N1CC(c2cnc(N3CC(C(F)(F)F)C3)nc2)C1)N1CC2(CC(c3nnc(C4CC4)[nH]3)C2)C1` [compound 263], the IC50 was 8.21 nM.

The molecule `O=C(N1CC(c2cnc(N3CCC(C(F)(F)F)C3)nc2)C1)N1CC2(CC(c3nnc(C4CC4)[nH]3)C2)C1` (stereo not shown) [compound 264] had an IC50 of 2.27 nM.

In turn, `O=C(N1CC(c2ccc(N3CC[C@H](C(F)(F)F)C3)nc2)C1)N1CC2(CC(c3nnc(C4CC4)[nH]3)C2)C1` [compound 267] showed an IC50 of 0.31 nM. This IC50 lies about 7.3-fold lower than the previous one.

The molecule `O=C(N1CC(c2ccc(N3CC[C@@H](C(F)(F)F)C3)nc2)C1)N1CC2(CC(c3nnc(C4CC4)[nH]3)C2)C1` [compound 268] had an IC50 of 0.35 nM.

Values taken from patent US20250099448A1, “HETEROCYCLIC COMPOUNDS” (Hoffmann-La Roche Inc., priority 2022, published 2025).
